Results published in US9085603B2, “Progesterone receptor antagonists” (Bayer Intellectual Property GmbH, priority 2010, dated 2015).

Legend:
[1] = target: T1, human progesterone receptor A (Homo sapiens, UniProt P06401); experiment: Progesterone receptor antagonistic effect in stably transfected SK-N-MC cells, MTV-LUC reporter (PR-A); assay type: cell-based; conditions: antagonism of 0.1 nmol/l promegestone, luciferase reporter, 24 hours
T1 construct: expressed in transfected cells; host or cells: SK-N-MC human neuroblastoma cells, stably transfected with pRChPR-A-neo and pMMTV-LUC
T1 sequence (P06401 1-769 isoform P06401-2): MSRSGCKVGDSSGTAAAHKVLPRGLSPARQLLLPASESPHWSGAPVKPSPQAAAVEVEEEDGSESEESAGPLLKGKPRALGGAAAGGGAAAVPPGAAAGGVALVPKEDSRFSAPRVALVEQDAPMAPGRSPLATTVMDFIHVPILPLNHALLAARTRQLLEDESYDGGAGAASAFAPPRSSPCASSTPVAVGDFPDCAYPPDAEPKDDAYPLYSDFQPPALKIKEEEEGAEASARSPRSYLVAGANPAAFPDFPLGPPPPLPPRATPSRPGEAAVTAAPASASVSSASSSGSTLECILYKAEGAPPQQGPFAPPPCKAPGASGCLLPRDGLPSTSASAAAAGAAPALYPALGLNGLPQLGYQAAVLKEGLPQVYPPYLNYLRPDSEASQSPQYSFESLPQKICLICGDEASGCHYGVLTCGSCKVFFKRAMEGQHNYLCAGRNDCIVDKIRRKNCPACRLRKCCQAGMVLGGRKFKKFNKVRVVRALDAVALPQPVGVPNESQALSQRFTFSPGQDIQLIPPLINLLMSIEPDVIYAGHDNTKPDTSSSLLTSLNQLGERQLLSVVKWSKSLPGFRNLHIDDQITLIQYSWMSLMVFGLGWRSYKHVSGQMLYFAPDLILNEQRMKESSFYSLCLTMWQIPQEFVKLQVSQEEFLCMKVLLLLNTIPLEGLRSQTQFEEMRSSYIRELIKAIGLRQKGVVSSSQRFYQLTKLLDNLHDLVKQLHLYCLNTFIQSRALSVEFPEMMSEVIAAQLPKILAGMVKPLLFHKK
Experimental: (§1) Progesterone Receptor Antagonistic Effect in Stable Transfectants of Human Neuroblastoma Cells (SK-N-MC cells) with the Human Progesterone A or Progesterone B Receptor and a MTV-LUC Reporter Construct
(§2) SK-N-MC cells (human neuroblastoma cells), which have been stably transfected with plasmids which express the human progesterone receptor B (pRChPR-B-neo) or the human progesterone receptor A (pRChPR-A-neo) and a reporter construct (pMMTV-LUC), were incubated for 24 hours either in the absence (negative control) or in the presence of increasing amounts of the particular test compound (0.01 nmol/l, 0.1 nmol/l, 1 nmol/l, 10 nmol/l, 100 nmol/l and 1 μmol/l) in order to determine the agonistic efficacy. As a positive control of the reporter gene induction, the cells were treated with the synthetic gestagen promegestone (0.01 nmol/l, 0.1 nmol/l, 1 nmol/l, 10 nmol/l, 100 nmol/l and 1 μmol/l). To determine the antagonistic activity, the cells were treated with 0.1 nmol/l of promegestone and additionally with increasing amounts of the particular test compound (0.01 nmol/l, 0.1 nmol/l, 1 nmol/l, 10 nmol/l, 100 nmol/l and 1 μmol/l). The activity of the reporter gene LUC (LUC=luciferase) was determined in the cell lysates and measured as RLU (relative light units). All measurement values are given as percentage efficacy and as EC50 or IC50 concentrations.

[2] = target: T2, human progesterone receptor B (Homo sapiens, UniProt P06401); experiment: Progesterone receptor antagonistic effect in stably transfected SK-N-MC cells, MTV-LUC reporter (PR-B); assay type: cell-based; conditions: antagonism of 0.1 nmol/l promegestone, luciferase reporter, 24 hours
T2 construct: expressed in transfected cells; host or cells: SK-N-MC human neuroblastoma cells, stably transfected with pRChPR-B-neo and pMMTV-LUC
T2 sequence (P06401 1-933): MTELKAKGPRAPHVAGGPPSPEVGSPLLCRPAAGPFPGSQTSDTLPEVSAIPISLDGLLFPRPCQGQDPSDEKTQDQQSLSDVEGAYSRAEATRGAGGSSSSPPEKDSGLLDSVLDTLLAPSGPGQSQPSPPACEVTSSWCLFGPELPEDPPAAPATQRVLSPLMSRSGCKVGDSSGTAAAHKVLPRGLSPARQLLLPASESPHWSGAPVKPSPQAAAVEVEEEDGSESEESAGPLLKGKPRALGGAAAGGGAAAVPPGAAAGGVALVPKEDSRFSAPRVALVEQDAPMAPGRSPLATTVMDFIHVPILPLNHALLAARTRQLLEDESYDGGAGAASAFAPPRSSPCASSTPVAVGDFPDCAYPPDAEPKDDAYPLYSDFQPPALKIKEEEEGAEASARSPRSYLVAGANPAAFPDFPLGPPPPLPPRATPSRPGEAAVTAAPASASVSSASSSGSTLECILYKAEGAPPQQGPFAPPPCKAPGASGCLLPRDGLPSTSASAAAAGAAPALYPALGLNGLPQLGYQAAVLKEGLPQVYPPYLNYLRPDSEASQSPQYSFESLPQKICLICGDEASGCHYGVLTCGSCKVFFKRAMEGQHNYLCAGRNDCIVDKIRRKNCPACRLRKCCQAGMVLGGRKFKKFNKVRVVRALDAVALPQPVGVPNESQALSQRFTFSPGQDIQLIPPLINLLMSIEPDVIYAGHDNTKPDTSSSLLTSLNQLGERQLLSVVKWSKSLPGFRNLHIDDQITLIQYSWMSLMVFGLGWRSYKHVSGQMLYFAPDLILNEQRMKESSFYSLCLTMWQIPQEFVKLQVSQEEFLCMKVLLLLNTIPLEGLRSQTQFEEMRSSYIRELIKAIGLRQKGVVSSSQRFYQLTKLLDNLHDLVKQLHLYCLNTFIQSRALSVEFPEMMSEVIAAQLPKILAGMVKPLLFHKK
Experimental: as §1, §2

[3] = test system: pregnant rats; experiment: Abortive test on female rats (termination of early pregnancy); assay type: in vivo, rat; conditions: for Abortion rate: d5-d7 p.c., autopsy d9 p.c.
Experimental: The antagonistic effect of the compounds according to the invention was tested on pregnant rats (6 rats per group) on day (d) 5 to 7 post coitum (p.c.) under conventional keeping and feeding conditions.
After successful pairing, the pregnant animals (presence of sperm in the vaginal smear on day 1 of the pregnancy=d1 p.c.) were randomized and divided into the treatment group and the control group. The animals were then given, subcutaneously or orally, in each case 0.15; 0.5; 1.5 or 5 mg/kg of the test compound or […] of vehicle (benzyl benzoate/ricinus oil: 1+4 [v/v]) daily from day 5 to day 7 (d5-d7 p.c.).
The autopsy was carried out on day 9 (d9 p.c.). As the parameter of the progesterone receptor antagonistic effect, the uterus was investigated with regard to the presence of nidation sites. Here, the complete lack of nidation sites, but also the presence of pathological, haemmorhagic or otherwise abnormal nidation sites, on day 9 (d9 p.c.) was evaluated as an abortion.

Compound	IC50 [1] [nM]	IC50 [2] [nM]	Abortion rate ([3]; daily dose 0.5 mg/kg p.o.) [%]	Abortion rate ([3]; daily dose 1.5 mg/kg p.o.) [%]	Abortion rate ([3]; daily dose 5.0 mg/kg p.o.) [%]	In vivo properties in preclinical tests ([3]; preclinical tests, not further specified)
CC(C)(C)OC(=O)N1CCN(Cc2ccc([C@H]3C[C@@]4(C)[C@@H](CC[C@@]4(O)C(F)(F)C(F)(F)F)[C@@H]4CCC5=CC(=O)CCC5=C43)cc2)CC1 [Example 3, tert-Butyl 4-{4-[(11β,17β)-17-hydroxy-3-oxo-17-(pentafluoroethyl)estra-4,9-dien-11-yl]benzyl}piperazine-1-carboxylate]	0.11	0.15				
C[C@]12C[C@H](c3ccc(CN4CCCCC4)cc3)C3=C4CCC(=O)C=C4CC[C@H]3[C@@H]1CC[C@@]2(O)C(F)(F)C(F)(F)F [Example 4, (11β,17β)-17-Hydroxy-17-(pentafluoroethyl)-11-[4-(piperidin-1-ylmethyl)phenyl]estra-4,9-dien-3-one]	1.4	2.1				
COC(=O)C1CCN(Cc2ccc([C@H]3C[C@@]4(C)[C@@H](CC[C@@]4(O)C(F)(F)C(F)(F)F)[C@@H]4CCC5=CC(=O)CCC5=C43)cc2)CC1 [Example 5, Methyl 1-{4-[(11β,17β)-17-hydroxy-3-oxo-17-(pentafluoroethyl)estra-4,9-dien-11-yl]benzyl}piperidine-4-carboxylate]	1.2	0.99				
CC(C)(C)OC(=O)N1CCCN(Cc2ccc([C@H]3C[C@@]4(C)[C@@H](CC[C@@]4(O)C(F)(F)C(F)(F)F)[C@@H]4CCC5=CC(=O)CCC5=C43)cc2)CC1 [Example 6, tert-Butyl 4-{4-[(11β,17β)-17-hydroxy-3-oxo-17-(pentafluoroethyl)estra-4,9-dien-11-yl]benzyl}-1,4-diazepane-1-carboxylate]	0.33	0.3				
C[C@]12C[C@H](c3ccc(CN4CCOCC4)cc3)C3=C4CCC(=O)C=C4CC[C@H]3[C@@H]1CC[C@@]2(O)C(F)(F)C(F)(F)F [Example 7, (11β,17β)-17-Hydroxy-11-[4-(morpholin-4-ylmethyl)phenyl]-17-(pentafluoroethyl)estra-4,9-dien-3-one]	0.1	0.1				
C[C@]12C[C@H](c3ccc(CN4CCS(=O)(=O)CC4)cc3)C3=C4CCC(=O)C=C4CCC3C1CC[C@@]2(O)C(F)(F)C(F)(F)F (stereo partly drawn) [Example 8, (11β,17β)-11-{4-[(1,1-Dioxidothiomorpholin-4-yl)methyl]phenyl}-17-hydroxy-17-(pentafluoroethyl)estra-4,9-dien-3-one]	0.1	0.3				
C[C@]12C[C@H](c3ccc(CNCCc4ccccc4)cc3)C3=C4CCC(=O)C=C4CC[C@H]3[C@@H]1CC[C@@]2(O)C(F)(F)C(F)(F)F [Example 9, (11β,17β)-17-Hydroxy-17-(pentafluoroethyl)-11-(4-{[(2-phenylethyl)amino]methyl}phenyl)estra-4,9-dien-3-one]	1.3	0.98				

Continued, in another order:

IC50 [1] [nM]	IC50 [2] [nM]	Compound	Abortion rate ([3]; daily dose 0.5 mg/kg p.o.) [%]	Abortion rate ([3]; daily dose 1.5 mg/kg p.o.) [%]	Abortion rate ([3]; daily dose 5.0 mg/kg p.o.) [%]	In vivo properties in preclinical tests ([3]; preclinical tests, not further specified)
0.88	0.12	C[C@]12C[C@H](c3ccc(CN4CCNCC4)cc3)C3=C4CCC(=O)C=C4CC[C@H]3[C@@H]1CC[C@@]2(O)C(F)(F)C(F)(F)F [Example 10, (11β,17β)-17-Hydroxy-17-(pentafluoroethyl)-11-[4-(piperazin-1-yl-methyl)phenyl]estra-4,9-dien-3-one]				
0.095	0.095	CC(=O)N1CCN(Cc2ccc([C@H]3C[C@@]4(C)C(CC[C@@]4(O)C(F)(F)C(F)(F)F)C4CCC5=CC(=O)CCC5=C43)cc2)CC1 (stereo partly drawn) [Example 11, (11β,17β)-11-{4-[(4-Acetylpiperazin-1-yl)methyl]phenyl}-17-hydroxy-17-(pentafluoroethyl)estra-4,9-dien-3-one]	100	100	100	exceptional in vivo properties
0.092	0.1	C[C@]12C[C@H](c3ccc(CN4CCN(C(=O)c5ccccc5)CC4)cc3)C3=C4CCC(=O)C=C4CCC3C1CC[C@@]2(O)C(F)(F)C(F)(F)F (stereo partly drawn) [Example 13, (11β,17β)-11-{4-[(4-Benzoylpiperazin-1-yl)methyl]phenyl}-17-hydroxy-17-(Pentafluoroethyl)estra-4,9-dien-3-one]				
0.1	0.094	CC(C)(C)C(=O)N1CCN(Cc2ccc([C@H]3C[C@@]4(C)C(CC[C@@]4(O)C(F)(F)C(F)(F)F)C4CCC5=CC(=O)CCC5=C43)cc2)CC1 (stereo partly drawn) [Example 14, (11β,17β)-11-(4-{[4-(2,2-Dimethylpropanoyl)piperazin-1-yl]methyl}phenyl)-17-hydroxy-17-(pentafluoroethyl)estra-4,9-dien-3-one]				
53	60	C[C@]12C[C@H](c3ccc(CN4CCC(C(=O)O)CC4)cc3)C3=C4CCC(=O)C=C4CC[C@H]3[C@@H]1CC[C@@]2(O)C(F)(F)C(F)(F)F [Example 15, 1-{4-[(11β,17β)-17-hydroxy-3-oxo-17-(pentafluoroethyl)estra-4,9-dien-11-yl]benzyl}piperidine-4-carboxylic acid]				
2.7	2.8	C[C@]12C[C@H](c3ccc(CN4CCCNCC4)cc3)C3=C4CCC(=O)C=C4CCC3C1CC[C@@]2(O)C(F)(F)C(F)(F)F (stereo partly drawn) [Example 16, (11β,17β)-11-[4-(1,4-Diazepan-1-ylmethyl)phenyl]-17-hydroxy-17-(pentafluoroethyl)estra-4,9-dien-3-one]				
0.56	0.57	CC(=O)N1CCCN(Cc2ccc([C@H]3C[C@@]4(C)C(CC[C@@]4(O)C(F)(F)C(F)(F)F)C4CCC5=CC(=O)CCC5=C43)cc2)CC1 (stereo partly drawn) [Example 17, (11β,17β)-11-{4-[(4-Acetyl-1,4-diazepan-1-yl)methyl]phenyl}-17-hydroxy-17-(pentafluoroethyl)estra-4,9-dien-3-one]				
